Marks after values point to notes of the source that are not given here.
Legend:
CCR2 mRNA = assay: Inhibition of CCR2 mRNA level in MDSCs; assay type: cell-based; conditions: Mus musculus, 2 h, read-out: Suppression Rate (inhibition of CCR2 mRNA levels)
Experimental: Under sterile conditions, the tibia was removed, both ends of the bone were cut, and bone marrow was repeatedly flushed into a 15 mL centrifuge tube using a 1 mL syringe filled with culture medium. Centrifuge at 1600 rpm for 5 min to collect bone marrow cells. […] Count cells and adjust density to 1×10^6 cells/mL in complete medium. Seed cells uniformly into 6-well plates at 2 mL per well. […] After incubation, collect cells into centrifuge tubes, centrifuge at 1600 rpm for 5 min, wash once with 1×PBS, and add 500 μL RNA extraction reagent to each tube. After centrifugation to obtain the pellet, add 20 μL DEPC-treated water to each tube to dissolve the pellet. Determine RNA concentration and reverse transcribe to cDNA. Add the cDNA, primers, and […] to a 96-well plate. Centrifuge at 4000 rpm for 5 min, then place in a PCR instrument for detection.

[1] = tested on: inflammatory cytokines (IL-1β, IL-6) in lung tissue; assay: LPS-induced acute lung injury, inflammatory cytokines by ELISA; assay type: in vivo, C57BL/6 mice; conditions: for IL-1β: LPS 2411.32; for IL-6: LPS 3520.94
Experimental: After a 7-day acclimatization period, mice were used for subsequent experiments.
The abdomen was opened, and the lungs were removed. They were rinsed twice with pre-chilled PBS. […] The remaining tissue was stored at −70° C. for future use.
Data Statistics: All data are expressed as means S.E.M. Statistical differences between groups were analyzed using one-way ANOVA and t-tests in SPSS software. P values less than 0.05 were considered statistically significant.

[2] = tested on: inflammatory factors (MCP-1, TNF-α) in renal tissue; assay: Diabetic nephropathy, renal inflammatory factor mRNA; assay type: in vivo, C57/BL6J mice; set-up: Mcp-1 mRNA expression, kidney / Tnf-α mRNA expression, kidney / IL-6 mRNA expression, kidney: unit not given here; conditions: 8 weeks
Experimental: Experimental animals: C57/BL6J mice, male, 12 weeks old, purchased from GemPharmatech LLC. Production license number: SCXK(Su)2023-0009. […] Animals were acclimated for 7 days before use in experiments.
Administer streptozotocin (STZ, 50 mg/kg) via intraperitoneal injection for 5 consecutive days. After 72 hours, select mice with fasting blood glucose levels exceeding 16.7 mmol/L as model mice. […] Model mice were fed a high-fat diet (HFD) providing 60% of energy from fat for 8 weeks. After 8 weeks, gavage administration commenced.
Specimen Collection: One hour after the last drug administration, enucleate the eyeball to collect blood. Allow blood to stand at room temperature for 2 hours, then centrifuge at 3000 rpm for 20 minutes. Aspirate the serum, aliquot it, and store at −70° C. for future use. After blood collection, euthanize the mice by cervical dislocation. Open the abdominal cavity, remove the kidneys, and dissect away the perirenal fat and capsule. Store the tissue at −70° C. for future use.

Hepa1-6 cells = assay: Antitumor efficacy combined with anti-PD-L1 monoclonal antibody, Hepa1-6 xenograft; assay type: in vivo, C57BL/6 mice; conditions: for combination with anti-PD-L1 monoclonal antibody vs. single agents, Hepa1-6: 1 mg/kg/day i.p., 2 weeks, result in words
Experimental: Hepa1-6 cells were cultured and expanded in vitro. An appropriate number of cells in the logarithmic growth phase was resuspended in a mixture of serum-free DMEM medium and Matrigel (1:1). Under sterile conditions, prepare a cell suspension at 2.5×10^6 cells/100 μL. Using a syringe, inject 100 μL of the cell suspension subcutaneously into the left forelimb axilla of male C57BL/6 mice. […] Compounds 20 and 103 were administered via intraperitoneal injection daily, while anti-PD-L1 monoclonal antibody was administered intraperitoneally every three days for a total of two weeks. During the treatment period, mouse body weight and tumor diameter were measured daily. At the end of the experiment, mice were euthanized by cervical dislocation, and tumors were removed and weighed. Tumor volume (TV) was calculated using the formula: TV=½×a×b^2, where a represents the longest diameter of the tumor and b represents the shortest diameter.

[3] = tested on: inflammatory cytokines (TNF, IL-6, IL-1) in lung tissue; assay: LPS-induced sepsis, lung inflammatory factor mRNA (Q-PCR); conditions: for Il1 mRNA expression, lung: LPS 19.01; for Il6 mRNA expression, lung: LPS 20.34; for Tnf mRNA expression, lung: Normal = 1.00, LPS 10.92
Text: (§1) They were acclimated for 7 days before experimentation.
(§2) The normal and model groups received equal volumes of solvent (0.5% CMC-Na) via oral gavage.
(§3) Specimen Collection: One hour after the final drug administration, mice were euthanized by cervical dislocation. The abdominal cavity was opened, and the lungs, liver, and kidneys were removed. These organs were rinsed twice with pre-chilled PBS. Tissue samples were excised from the mouse lungs, left hepatic lobe, and kidneys. […] Remaining tissues were stored at −70° C. for future use.
(§4) Accurately weigh 20 mg of kidney, lung, and liver tissue. Rinse with pre-chilled PBS solution, cut into small pieces using ophthalmic scissors, and place into a glass homogenizer. Add 1 mL of Trizol reagent and grind to prepare tissue homogenate. Transfer the homogenate to a RNAse-free 1.5 mL EP tube and lyse on ice for 10 min. Add 200 μL chloroform, vortex vigorously, and let stand on ice for 3-5 min. Centrifuge at 12,000 rpm and 4° C. for 15 min. Carefully transfer the supernatant to a new RNAse-free 1.5 mL EP tube. Add an equal volume of pre-chilled isopropanol, incubate on ice for 30 min, then centrifuge at 12,000 rpm and 4° C. for 10 min. Discard the supernatant. […] Subsequently, dissolve the pellet in 10 μL DEPC-treated water. Dilute 1 μL of the total RNA solution 100-fold and measure the OD values at 260 nm and 280 nm using a full-wavelength microplate reader.
(§5) Following the method described in the kit manual, subsequent experiments were conducted using a 20 μL reverse transcription reaction system:
(§6) Primers were designed based on the nucleotide sequence of the mouse in GenBank and synthesized.
(§7) Perform subsequent experiments using a 20 μL reaction system according to the kit instructions:
(§8) After adding the above reagents to micro reaction tubes, seal them with the cap and place them in the Q-PCR instrument. Set the parameters according to the following reaction conditions to perform the amplification experiment.
(§9) Record the threshold cycle (Ct) values for each group and perform calculation and analysis using the 2^−ΔΔCt method (setting the expression level of the reference gene Gapdh as 1 to correct the expression levels of the target genes).
(§10) Data Statistics: All data are presented as Means±S.E.M. Analysis of variance (ANOVA) was performed to assess the significance of differences. Groups showing significant differences in ANOVA were further compared using one-way ANOVA and Dunnett's test. A P-value <0.05 was considered statistically significant.

[4] = tested on: inflammatory factors (TNF, IL-6, IL-1) in liver tissue; assay: LPS-induced sepsis, hepatic inflammatory factor mRNA (Q-PCR); conditions: for Tnf mRNA expression, liver: LPS 8.92; for Il6 mRNA expression, liver: LPS 11.34; for Il1 mRNA expression, liver: LPS 11.52
Text: as §1, §2, §3, §4, §5, §6, §7, §8, §9, §10

[5] = tested on: inflammatory factors Il1b, Il6 and Hscrp in serum; assay: HFD-induced atherosclerosis, serum Il1b, Il6 and Hscrp; assay type: in vivo, APOE−/− mice; set-up: Serum Il1b / Serum Il6 / Serum Hscrp: unit not given here; conditions: for Serum Hscrp / Serum Il1b / Serum Il6: 8 weeks
Experimental: Experimental animals: C57BL and APOE^−/− mice, male, 8 weeks old, purchased from GemPharmatech LLC. Production license number: SCXK(Su)2023-0009. […] They were acclimated for 7 days before use in experiments.
Normal group (C57BL), model group (HFD/APOE^−/−), positive control drug VTX3232 (10 mg/kg) group, compound 103 (0.3, 1, 3, 10 and 30 mg/kg) group, with 6 mice per group. Oral administration was performed continuously for 8 weeks.
Allow blood to stand at room temperature for 2 hours, then centrifuge at 3000 rpm for 20 minutes. Aspirate the serum, aliquot it, and store at −70° C. for future use. After blood collection, euthanize mice by cervical dislocation. Open the abdominal cavity, remove heart and aorta. […] Store remaining tissues at −80° C. for future use.
Serum Total Il1, Il6 and Hscrp Assay: For each sample, 10 μL of serum was used for […]. Samples were added sequentially strictly according to the kit instructions, incubated at 37° C., and measured for absorbance values using an enzyme-linked immunosorbent assay (ELISA) reader. The concentration levels of each indicator were calculated based on the standard curve.

[6] = dose 1 (head μmol/kg/day; text 1 mg/kg/day), i.p. daily, two weeks, Hepa1-6

Work on `C=C1C(=O)O[C@@H]2[C@H]3C(C)=CC[C@@]34O[C@@]4(C)CC[C@@H]12` [Arg, Arglabin, reference compound] yielded an inhibition at 1 µM (CCR2 mRNA) of 22.3% and an inhibition at 10 µM (CCR2 mRNA) of 69.7%.

Work on `CN(C)C[C@@H]1C(=O)O[C@H]2[C@H]1CC[C@@]1(C)C[C@]13CC[C@@](C)(O)[C@H]23` [Compound 20] yielded an IL-1β ([1]; 0.1 mg/kg) of 1570.02 ± 62.95 pg/mL, an IL-6 ([1]; 0.1 mg/kg) of 2348.32 ± 202.75 pg/mL and an IL-1β ([1]; 1 mg/kg) of 708.74 ± 38.40 pg/mL. For the same compound, the IL-6 ([1]; 1 mg/kg) was 1172.00 ± 240.50 pg/mL, the “Mcp-1 mRNA expression, kidney” value ([2]; 1 mg/kg gavage) was 2.33 ± 0.20 and the “Tnf-α mRNA expression, kidney” value ([2]; 1 mg/kg gavage) was 1.38 ± 0.17. The “Mcp-1 mRNA expression, kidney” value ([2]; 10 mg/kg gavage) was 1.40 ± 0.22, the “Tnf-α mRNA expression, kidney” value ([2]; 10 mg/kg gavage) was 0.96 ± 0.13 and the “tumor inhibition rate, combination” value (Hepa1-6 cells; 1 mg/kg/d i.p. combined with anti-PD-L1 monoclonal antibody (5 mg/kg/d)) was 96.99%. The “combination with anti-PD-L1 monoclonal antibody vs. single agents, Hepa1-6” value (Hepa1-6 cells) was “synergistic effect”, the “Il1 mRNA expression, lung” value ([3]; 1 mg/kg oral) was 5.22 ± 0.90 and the “Il6 mRNA expression, lung” value ([3]; 1 mg/kg oral) was 7.16 ± 0.71. The “Tnf mRNA expression, lung” value ([3]; 1 mg/kg oral) was 6.52 ± 0.29, the “Tnf mRNA expression, liver” value ([4]; 1 mg/kg oral) was 5.71 ± 0.61 and the “Il6 mRNA expression, liver” value ([4]; 1 mg/kg oral) was 3.93 ± 0.90. For the same compound, the “Il1 mRNA expression, liver” value ([4]; 1 mg/kg oral) was 3.07 ± 0.29.

Work on `CN(C)C[C@@H]1C(=O)O[C@H]2[C@H]1CC[C@@]1(C)C[C@]13CC[C@@](C)(O)[C@H]23` [Compound 21] yielded an IL-1β ([1]; 0.1 mg/kg) of 1623.55 ± 32.64 pg/mL, an IL-6 ([1]; 0.1 mg/kg) of 2585.26 ± 273.50 pg/mL and an IL-1β ([1]; 1 mg/kg) of 888.28 ± 35.20 pg/mL. For the same compound, the IL-6 ([1]; 1 mg/kg) was 1288.32 ± 123.80 pg/mL, the “Il1 mRNA expression, lung” value ([3]; 0.1 mg/kg oral) was 13.30 ± 0.88 and the “Il6 mRNA expression, lung” value ([3]; 0.1 mg/kg oral) was 18.40 ± 3.16. The “Tnf mRNA expression, lung” value ([3]; 0.1 mg/kg oral) was 8.79 ± 1.18, the “Il1 mRNA expression, lung” value ([3]; 1 mg/kg oral) was 6.79 ± 0.72 and the “Il6 mRNA expression, lung” value ([3]; 1 mg/kg oral) was 9.10 ± 1.20. The “Tnf mRNA expression, lung” value ([3]; 1 mg/kg oral) was 8.67 ± 1.51, the “Tnf mRNA expression, liver” value ([4]; 0.1 mg/kg oral) was 7.78 ± 1.68 and the “Il6 mRNA expression, liver” value ([4]; 0.1 mg/kg oral) was 8.96 ± 0.70. The “Il1 mRNA expression, liver” value ([4]; 0.1 mg/kg oral) was 10.32 ± 1.45, the “Tnf mRNA expression, liver” value ([4]; 1 mg/kg oral) was 7.12 ± 1.12 and the “Il6 mRNA expression, liver” value ([4]; 1 mg/kg oral) was 4.82 ± 0.69. For the same compound, the “Il1 mRNA expression, liver” value ([4]; 1 mg/kg oral) was 4.22 ± 0.90.

For `CC1=C2CC[C@@](C)(OC(=O)N3CCCC3)[C@@H]2[C@H]2OC(=O)[C@@H](CN3CCCC3)[C@@H]2CC1` [Compound 103], the “IL-1 β mRNA expression, kidney” value ([2]; 1 mg/kg gavage) was 1.00 ± 0.25 ^, the “IL-6 mRNA expression, kidney” value ([2]; 1 mg/kg gavage) was 4.47 ± 1.06 and the “Mcp-1 mRNA expression, kidney” value ([2]; 1 mg/kg gavage) was 6.78 ± 1.70. The “Tnf-α mRNA expression, kidney” value ([2]; 1 mg/kg gavage) was 3.14 ± 0.57, the “IL-1 β mRNA expression, kidney” value ([2]; 10 mg/kg gavage) was 0.96 ± 0.18**^ and the “IL-6 mRNA expression, kidney” value ([2]; 10 mg/kg gavage) was 3.97 ± 0.94. For the same compound, the “Mcp-1 mRNA expression, kidney” value ([2]; 10 mg/kg gavage) was 5.67 ± 2.31, the “Tnf-α mRNA expression, kidney” value ([2]; 10 mg/kg gavage) was 2.15 ± 0.13 and the “combination with anti-PD-L1 monoclonal antibody vs. single agents, Hepa1-6” value (Hepa1-6 cells) was “synergistic effect”. The “Tumor inhibition rate (%)” value (Hepa1-6 cells; [6]) was 62.26%, the “Tumor weight” value (Hepa1-6 cells; [6]) was 0.16 ± 0.05 g and the “Serum Hscrp” value ([5]; 0.3 mg/kg, oral) was 9.67 ± 1.25. For the same compound, the “Serum Il1b” value ([5]; 0.3 mg/kg, oral) was 277.35 ± 176.70, the “Serum Il6” value ([5]; 0.3 mg/kg, oral) was 95.42 ± 26.76 and the “Serum Hscrp” value ([5]; 1 mg/kg, oral) was 7.25 ± 0.77. For the same compound, the “Serum Il1b” value ([5]; 1 mg/kg, oral) was 255.38 ± 185.47, the “Serum Il6” value ([5]; 1 mg/kg, oral) was 90.32 ± 8.01 and the “Serum Hscrp” value ([5]; 3 mg/kg, oral) was 6.67 ± 0.46. For the same compound, the “Serum Il1b” value ([5]; 3 mg/kg, oral) was 173.42 ± 132.43, the “Serum Il6” value ([5]; 3 mg/kg, oral) was 82.19 ± 4.83 and the “Serum Hscrp” value ([5]; 10 mg/kg, oral) was 5.80 ± 0.41. For the same compound, the “Serum Il1b” value ([5]; 10 mg/kg, oral) was 77.91 ± 41.08, the “Serum Il6” value ([5]; 10 mg/kg, oral) was 50.08 ± 9.76 and the “Serum Hscrp” value ([5]; 30 mg/kg oral) was 4.88 ± 0.63. For the same compound, the “Serum Il1b” value ([5]; 30 mg/kg oral) was 62.93 ± 23.79, the “Serum Il6” value ([5]; 30 mg/kg oral) was 34.82 ± 20.80 and the “serum Il1b, Il6 and Hscrp levels compared with the model group” value ([5]; 0.3, 1, 3, 10, 30 mg/kg oral) was “markedly lower”.

From patent publication US20260315434A1, “USE OF GUAIACOL SESQUITERPENE LACTONE DERIVATIVES” (NANJING UNIVERSITY OF CHINESE MEDICINE, priority 2023, published 2026)
